# Values quoted from earlier work as cited in patent US20050059682A1, “Compositions and methods for treatment of cancer” (priority 2003, published 2005).
# Columns and labels:
# prostate cancer = settings: single-agent chemotherapy of prostate cancer
# HDAC = settings: in vitro or in vivo for SAHA, SBHA, CBHA
Compound,efficacy as single agent (prostate cancer),further results
O=c1[nH]cc(F)c(=O)[nH]1 [5-fluorouracil],minimal efficacy,
"O=C(/C=C/c1cccc(C(=O)NO)c1)NO [CBHA, m-carboxy-cinnamic acid bishydroxamic acid]",,concentration at which HDAC is inhibited (HDAC): micromolar concentration or lower
C/C=C1\NC(=O)[C@H]2CSSCC/C=C/[C@H](CC(=O)N[C@H](C(C)C)C(=O)N2)OC(=O)[C@H](C(C)C)NC1=O [FR901228],,concentration at which HDAC is inhibited (HDAC): micromolar concentrations
"CC(/C=C/C(=O)NO)=C\[C@@H](C)C(=O)c1ccc(N(C)C)cc1 [TSA, trichostatin A]",,inhibition of mammalian HDAC (mammalian HDAC): potent inhibitor
N.N.[Cl][Pt][Cl] [cisplatin],minimal efficacy,
O=P1(N(CCCl)CCCl)NCCCO1 (stereo not shown) [cyclophosphamide],minimal efficacy,
"Nc1ncn([C@H]2C[C@H](O)[C@@H](CO)O2)c(=O)n1 [decitabine, 5-aza-2′-deoxycytidine]",,half life in vivo: short half life; tissue distribution (in vivo): excellent tissue distribution
COc1cccc2c1C(=O)c1c(O)c3c(c(O)c1C2=O)C[C@@](O)(C(=O)CO)C[C@@H]3O[C@H]1C[C@H](N)[C@H](O)[C@H](C)O1 [doxorubicin],minimal efficacy,
C[C@]12CC[C@@H]3c4ccc(OC(=O)N(CCCl)CCCl)cc4CC[C@H]3[C@@H]1CC[C@@H]2O [estramustine],minimal efficacy,
CN(Cc1cnc2nc(N)nc(N)c2n1)c1ccc(C(=O)N[C@@H](CCC(=O)O)C(=O)O)cc1 [methotrexate],minimal efficacy,
O=C1c2c(O)ccc(O)c2C(=O)c2c(NCCNCCO)ccc(NCCNCCO)c21 [mitoxantrone],minimal efficacy,
depudecin,,concentration at which HDAC is inhibited (HDAC): micromolar concentrations
